The source of these data is article PMC6828666, “Discovery of holoenzyme-disrupting chemicals as substrate-selective CK2 inhibitors” (Scientific Reports, 2019).

The target in one data set is CK2α/CK2β interaction (Homo sapiens, UniProt P68400). In words: In vitro CK2α/CK2β interaction assay ([35S]methionine-labeled CK2α, plate-bound MBP-CK2β). It counts as binding. How it is done: The CK2α/CK2β interaction assay involved competition between plate-bound MBP-CK2β and the selected compounds for binding to soluble [^35S]methionine-labeled CK2α (10^5 cpm). The assays were performed in reacti-Bind streptavidin-coated high-binding-capacity 96-well plates (Pierce) in which each well was coated with 250 ng of biotinylated MBP-CK2β in 50 mM Tris/HCl, pH 7.2, and 0.4 M NaCl buffer. The compounds and [^35S]methionine-labeled CK2α were added in each well in the same buffer, incubated for 1 h at room temperature and triple-washed, after which the radioactivity of each well was determined using a scintillation counter. Positive control (100% competition) was determined with a 10-fold molar excess of untagged CK2α, and negative control (0% competition) was performed in the absence of competitor[35].

A further data set concerns the target CK2α (Homo sapiens, UniProt P68400). In words: SPR binding studies on captured GST-CK2α. The following applies: surface plasmon resonance. How it is done: SPR competition studies (Fig. 2i) were performed using a BIAcore 3000 instrument (BIAcore AB) equipped with a CM5 sensor chip (BIAcore AB). After activation with a solution of N-hydroxysuccinimide and N-ethyl-N-(dimethylaminopropyl)carbodiimide hydrochloride (coupling solution BIAcore AB), the anti-GST antibody diluted at 30 μg/ml in 10 mM acetate buffer pH 5.0 was injected at a flow rate of 5 μL/min for 7 min. All the surfaces were blocked with a 3 min injection at 10 μL/min of 1 M ethanolamine, pH 8.0. GST-CK2α (50 μg/ml) was immobilized on the surface at a flow rate of 5 μL/min in HBS (10 mM Hepes pH 7.3, 0.15 M NaCl, 3 mM EDTA, 0.005% polysorbate 20). MBP-CK2β diluted at 50 μg/ml in HBS buffer was injected over the surface at a flow rate of 5 μL/min in presence of various compound 1 concentration. Regeneration of the surfaces was achieved by injection of 10 mM glycine-HCl pH 2.2. SPR binding studies (Supplementary Fig. S7) were performed using a Reichert SR7000DC instrument optical biosensor (Reichert Technologies) equipped with a CMD500m sensor chip obtained from XanTec Bioanalytics. CK2α was immobilized by a capturing approach using a monoclonal anti-GST antibody (27 kDa, Clone GST-R 6G9 produced in rat, SAB4200055 Sigma Aldrich). Prior to use, the anti-GST antibodies were purified twice by micro dialysis at 4 °C (Membrane: dialysis tubing benzoylated, 9 mm, D2272-5FT) in 10 mM sodium acetate, pH = 5. Anti-GST antibodies were immobilized using amine-coupling chemistry at 12 °C. The surfaces of all two flow cells were activated for 7 min with a 1:1 mixture of 0.1 M NHS (N-hydroxysuccinimide) and 0.1 M EDC (3-(N,N-dimethylamino) propyl-N-ethylcarbodiimide) at a flow rate of 10 μL/min. The antibody at a concentration of 30 μg/mL in 10 mM sodium acetate, pH 5.0, was immobilized at a density of 2000 RU on flow cell 2; flow cell 1 was left blank to serve as a reference surface. All the surfaces were blocked with a 3 min injection at 10 μL/min of 1 M ethanolamine, pH 8.0. GST tagged CK2α at a concentration of 50 μg/mL in 10 mM HEPES, 150 mM NaCl, 3 mM EDTA, 0.005% (v/v) polysorbate 20, pH = 7.4 was captured at a density of 900 RU on flow cell 2. In order to collect kinetic binding data, analytes in 10 mM HEPES, 150 mM NaCl, 3 mM EDTA, 0.005% (v/v) polysorbate 20, 1% DMSO (v/v), 100 μM ATP, pH = 7.4 were injected over the two flow cells at concentrations of 50, 25, 12.5, 6.25, 3.12, 1.56 μM at a flow rate of 25 μL/min and at a temperature of 25 °C. The complex was allowed to associate and dissociate for 120 s. Duplicate injections (in random order) of each sample and a buffer blank were flowed over the two surfaces. Affinities were obtained after treatments (DMSO calibration, blank and references subtractions) using the software Scrubber 2.0c.
Fig. S7. Binding kinetics of compounds 2-6 by surface plasmon resonance. For each compound, sensorgrams (black line) and global fits (orange line) are depicted with the corresponding chemical structure and the fitted kinetics parameters. Experiments show representative data of two identical repeats.

The next data set relates to MDA-MB231 cells. In words: Apoptosis by annexin V/propidium iodide staining. It counts as cell-based. The conditions noted are these: MDA-MB231, 40 μM, AV/PI staining. The method, then:
Cells plated at equal density (2 × 10^4 cells/well) were treated with the indicated inhibitors in cell culture medium containing 0.5 μg/ml Propidium iodide (Sigma-Aldrich). Images of PI-stained red fluorescent cells were captured every 3 h for the duration of the experiment. For apoptosis detection, 50 μL/mL fluorochrome-conjugated Annexin V (Molecular Probes) was added to the medium together with Propidium iodide and apoptotic cell numbers were calculated.
Fig. S12. […] Cell viability was assessed by Annexin V staining (a) or PI staining (b) using the Essen IncuCyte Zoom live-cell microscopy incubator. Images were captured every hour for the duration of the experiment. Error bars represent the SEM of two biological replicates derived from technical triplicates.

A short description of data set [1]: Solubility in the protein buffer (WaterLOGSY NMR). The data set is classed as physicochemical. The conditions noted are these: relative to the other compounds. How it is done: Standard 1D, STD, and WaterLOGSY NMR spectra were acquired at 20 °C with a Bruker 600 MHz NMR spectrometer, equipped with a Z-gradient cryoprobe. WaterLOGSY mixing time was 1.5 s. Both STD and WaterLOGSY spectra were recorded for each sample. WaterLOGSY spectra in the absence of protein receptor were recorded with 300 µM compound to assess the compound solubility. All the NMR experiments were performed at 293 K with excitation sculpting to suppress peaks from water. 1D and STD experiments were performed using identical experimental conditions (spin lock, interscan delays), and parameters for the STD experiments (saturation frequency and saturation time) were identical for all samples. […] NMR tubes contained 2 μM CK2 with 300 μM of 4.

CK2α, sequence (P68400 whole entry): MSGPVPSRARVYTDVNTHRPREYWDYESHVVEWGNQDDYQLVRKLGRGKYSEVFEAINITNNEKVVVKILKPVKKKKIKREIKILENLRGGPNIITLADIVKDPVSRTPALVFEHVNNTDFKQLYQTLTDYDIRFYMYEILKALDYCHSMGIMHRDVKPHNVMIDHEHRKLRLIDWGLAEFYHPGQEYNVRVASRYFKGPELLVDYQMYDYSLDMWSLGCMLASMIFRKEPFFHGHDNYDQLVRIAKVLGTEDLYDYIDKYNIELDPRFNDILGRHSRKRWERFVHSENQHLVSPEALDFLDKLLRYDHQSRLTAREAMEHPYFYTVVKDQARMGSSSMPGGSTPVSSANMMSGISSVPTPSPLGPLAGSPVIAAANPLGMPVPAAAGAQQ
CK2α/CK2β interaction, sequence (P68400 whole entry): as above

Broadly, the IC50 is the concentration at which inhibition is half-maximal. On CK2α/CK2β interaction, `COc1[nH]c2ccc(F)cc2c1C(=O)OCC1CCN(CCNS(C)(=O)=O)CC1` [Compound 1] showed an IC50 of about 80 µM. Also, the “reduction of bound radioactive CK2α” value at CK2α/CK2β interaction (single dose 300 μM) is “about 75%”.
As usually defined, the Kd is the concentration at which binding is half-saturated. A lower Kd goes with tighter binding. With `CS(=O)(=O)NCCN1CCC(COC(=O)c2c[nH]c3ccccc23)CC1` [Compound 3, (1-(2-(Methylsulfonamido)ethyl)piperidin-4-yl)methyl 1H-indole-3-carboxylate], the equilibrium dissociation constant (Kd) on CK2α is 54 ± 5 µM. In addition, the induction of apoptosis result in the data set with MDA-MB231 cells is on record as “unable to induce apoptosis”.
On CK2α, `O=C(OCC1CCN(CCNS(=O)(=O)c2ccccc2)CC1)c1c[nH]c2ccccc12` [Compound 4, (1-(2-(Phenylsulfonamido)ethyl)piperidin-4-yl)methyl 1H-indole-3-carboxylate] came in with an equilibrium dissociation constant (Kd) of 41 ± 5 µM. Besides, in data set [1], the “solubility in the protein buffer” value is given as “highest solubility”.
As for `COc1[nH]c2ccc(F)cc2c1C(=O)OCC1CCN(CCNS(=O)(=O)c2ccccc2)CC1.Cl` [Compound 6], the “exposure time after which apoptosis was detected” value in the data set with MDA-MB231 cells turned out to be 8 h.
